PubChem BioAssay AID252 (DTP/NCI, 2004)
Several values for one entry are separate records, joined by “and”; a condition that tells them apart may be missing. Equal entries are not always repeated. Toxic doses and inconclusive results are not listed.

Tested on: BDF1 mice, intracerebral L1210 leukemia, survival T/C
Assay: NCI In Vivo Anticancer Drug Screen. Data for tumor model L1210 Leukemia (intracerebral) in B6D2F1 (BDF1) mice
Settings: endpoint: mean survival time, higher = longer survival
Procedure: The antitumor activity of compounds was measured in mice bearing transplantable tumors. Survival or tumor size were measured and the results are expressed as the measurement made in the treated group (T) divided by the measurement made in the vehicle treated control group (C). The tumor model used in this assay is L1210 Leukemia (intracerebral) in B6D2F1 (BDF1) mice

[1] = dose: 112.0 mg/kg/injection, schedule: Q01DX001 (ip), vehicle: carboxymethylcellulose (CMC)
[2] = dose: 50.0 mg/kg/injection, schedule: Q01DX001 (ip), vehicle: carboxymethylcellulose (CMC)
[3] = dose: 75.0 mg/kg/injection, schedule: Q01DX001 (ip), vehicle: carboxymethylcellulose (CMC)
[4] = dose: 50.0 mg/kg/injection, schedule: Q01DX Z (ip), vehicle: carboxymethylcellulose (CMC)

Compound: CNC(=O)N(C)N=O
- T/C [1]: 115 % of control
- T/C (dose: 167.0 mg/kg/injection, schedule: Q01DX001 (ip), vehicle: carboxymethylcellulose (CMC)): 113 % of control
- T/C (dose: 225.0 mg/kg/injection, schedule: Q01DX001 (ip), vehicle: carboxymethylcellulose (CMC)): 161 % of control
- T/C (dose: 375.0 mg/kg/injection, schedule: Q01DX001 (ip), vehicle: carboxymethylcellulose (CMC)): 112 % of control

Compound: O=NN(CCCl)C(=O)N[C@H]1CCC[C@@H](O)C1
- T/C (dose: 12.0 mg/kg/injection, schedule: Q01DX001 (ip), vehicle: saline with Tween-80): 124 % of control
- T/C (dose: 18.0 mg/kg/injection, schedule: Q01DX001 (ip), vehicle: saline with Tween-80): 164 % of control
- T/C (dose: 26.0 mg/kg/injection, schedule: Q01DX001 (ip), vehicle: saline with Tween-80): 420 % of control
- T/C (dose: 40.0 mg/kg/injection, schedule: Q01DX001 (ip), vehicle: saline with Tween-80): 452 % of control
- T/C (dose: 60.0 mg/kg/injection, schedule: Q01DX001 (ip), vehicle: saline with Tween-80): 303 % of control
- T/C (dose: 90.0 mg/kg/injection, schedule: Q01DX001 (ip), vehicle: saline with Tween-80): 90 % of control

Compound: CN(N=O)C(=O)NC(N)=O
- T/C (dose: 33.0 mg/kg/injection, schedule: Q01DX001 (ip), vehicle: carboxymethylcellulose (CMC)): 102 % of control
- T/C [2]: 105 % of control
- T/C [3]: 114 % of control
- T/C [1]: 115 % of control

Compound: O=C(Nc1ccc(C2=NCCN2)cc1)c1ccc(C(=O)Nc2ccc(C3=NCCN3)cc2)cc1
- T/C [4]: 107 % of control
- T/C (dose: 100.0 mg/kg/injection, schedule: Q01DX Z (ip), vehicle: carboxymethylcellulose (CMC)): 110 % of control
- T/C (dose: 200.0 mg/kg/injection, schedule: Q01DX Z (ip), vehicle: carboxymethylcellulose (CMC)): 121 % of control
- T/C (dose: 250.0 mg/kg/injection, schedule: Q01DX Z (ip), vehicle: carboxymethylcellulose (CMC)): 116 % of control
- T/C (dose: 375.0 mg/kg/injection, schedule: Q01DX Z (ip), vehicle: carboxymethylcellulose (CMC)): 97 % of control

Compound: CCn1cnc2c(SC(C)C)ncnc21
- T/C (dose: 16.0 mg/kg/injection, schedule: Q01DX Z (ip), vehicle: carboxymethylcellulose (CMC)): 100 % of control
- T/C (dose: 31.0 mg/kg/injection, schedule: Q01DX Z (ip), vehicle: carboxymethylcellulose (CMC)): 109 % of control
- T/C (dose: 62.0 mg/kg/injection, schedule: Q01DX Z (ip), vehicle: carboxymethylcellulose (CMC)): 110 % of control

Compound: CN(N=O)C(=O)N[C@@H](C=O)[C@@H](O)[C@H](O)[C@H](O)CO
- T/C (dose: 15.0 mg/kg/injection, schedule: Q01DX009 (ip), vehicle: saline): 105 % of control
- T/C (dose: 22.0 mg/kg/injection, schedule: Q01DX009 (ip), vehicle: other): 98 % of control
- T/C (dose: 30.0 mg/kg/injection, schedule: Q01DX005 (ip), vehicle: saline): 105 % of control
- T/C (dose: 30.0 mg/kg/injection, schedule: Q01DX009 (ip), vehicle: saline): 108 % of control
- T/C (dose: 33.0 mg/kg/injection, schedule: Q01DX009 (ip), vehicle: other): 100 % of control
- T/C (dose: 50.0 mg/kg/injection, schedule: Q01DX009 (ip), vehicle: other): 95 % of control
- T/C (dose: 60.0 mg/kg/injection, schedule: Q01DX005 (ip), vehicle: saline): 101 % of control
- T/C (dose: 60.0 mg/kg/injection, schedule: Q01DX009 (ip), vehicle: saline): 109 % of control
- T/C (dose: 75.0 mg/kg/injection, schedule: Q01DX009 (ip), vehicle: other): 94 % of control
- T/C (dose: 113.0 mg/kg/injection, schedule: Q01DX009 (ip), vehicle: other): 93 % of control
- T/C (dose: 120.0 mg/kg/injection, schedule: Q01DX005 (ip), vehicle: saline): 107 % of control
- T/C (dose: 120.0 mg/kg/injection, schedule: Q01DX009 (ip), vehicle: saline): 113 % of control
- T/C (dose: 240.0 mg/kg/injection, schedule: Q01DX005 (ip), vehicle: saline): 105 % of control

Compound: O=NN(CCCl)C(=O)Nc1ccc(Oc2ccc(NC(=O)N(CCCl)N=O)cc2)cc1
- T/C (dose: 440.0 mg/kg/injection, schedule: Q01DX001 (ip), vehicle: carboxymethylcellulose (CMC)): 116 % of control
- T/C (dose: 670.0 mg/kg/injection, schedule: Q01DX001 (ip), vehicle: carboxymethylcellulose (CMC)): 119 % of control
- T/C (dose: 1500.0 mg/kg/injection, schedule: Q01DX001 (ip), vehicle: carboxymethylcellulose (CMC)): 122 % of control

Compound: O=C(Nc1ccc(C2=NCCN2)cc1)c1ccc(C(=O)Nc2ccc(C3=NCCN3)cc2)c(Cl)c1
- T/C (dose: 12.0 mg/kg/injection, schedule: Q01DX015 (ip), vehicle: carboxymethylcellulose (CMC)): 112 % of control
- T/C (dose: 12.5 mg/kg/injection, schedule: Q01DX Z (ip), vehicle: carboxymethylcellulose (CMC)): 114 % of control
- T/C (dose: 18.0 mg/kg/injection, schedule: Q01DX015 (ip), vehicle: carboxymethylcellulose (CMC)): 120 % of control
- T/C (dose: 25.0 mg/kg/injection, schedule: Q01DX Z (ip), vehicle: carboxymethylcellulose (CMC)): 108 % of control
- T/C (dose: 27.0 mg/kg/injection, schedule: Q01DX015 (ip), vehicle: carboxymethylcellulose (CMC)): 118 % of control
- T/C (dose: 37.5 mg/kg/injection, schedule: Q01DX Z (ip), vehicle: carboxymethylcellulose (CMC)): 102 % of control
- T/C (dose: 48.0 mg/kg/injection, schedule: Q01DX001 (ip), vehicle: carboxymethylcellulose (CMC)): 98 % of control
- T/C (dose: 48.4 mg/kg/injection, schedule: Q01DX001 (ip), vehicle: carboxymethylcellulose (CMC)): 102 % of control
- T/C [4]: 96 % of control
- T/C (dose: 74.0 mg/kg/injection, schedule: Q01DX001 (ip), vehicle: carboxymethylcellulose (CMC)): 107 % of control and 100 % of control

Compound: COCCOC1=C(N2CC2)C(=O)C(OCCOC)=C(N2CC2)C1=O
- T/C (dose: 0.25 mg/kg/injection, schedule: Q01DX009 (ip), vehicle: saline): 98 % of control and 100 % of control
- T/C (dose: 1.0 mg/kg/injection, schedule: Q01DX009 (ip), vehicle: saline): 105 % of control and 109 % of control
- T/C (dose: 2.0 mg/kg/injection, schedule: Q01DX009 (ip), vehicle: saline): 104 % of control and 112 % of control and 114 % of control

Compound: CN(N=O)C(=O)Nc1ccc(C(=O)O)cc1
- T/C (dose: 60.0 mg/kg/injection, schedule: Q01DX001 (ip), vehicle: carboxymethylcellulose (CMC)): 110 % of control
- T/C (dose: 120.0 mg/kg/injection, schedule: Q01DX001 (ip), vehicle: carboxymethylcellulose (CMC)): 114 % of control

Compound: CC(=O)c1ccc(NC(=O)N(CCCl)N=O)cc1
- T/C (dose: 37.5 mg/kg/injection, schedule: Q01DX001 (ip), vehicle: carboxymethylcellulose (CMC)): 117 % of control
- T/C [2]: 118 % of control
- T/C [3]: 121 % of control

Compound: Cc1[nH]c(=O)[nH]c(=O)c1N(CCF)CCCl
- T/C (dose: 3.5 mg/kg/injection, schedule: Q01DX009 (ip), vehicle: Klucel (hydroxypropylcellulose) (HPC)): 97 % of control
- T/C (dose: 7.0 mg/kg/injection, schedule: Q01DX009 (ip), vehicle: Klucel (hydroxypropylcellulose) (HPC)): 88 % of control
- T/C (dose: 14.0 mg/kg/injection, schedule: Q01DX009 (ip), vehicle: Klucel (hydroxypropylcellulose) (HPC)): 111 % of control
- T/C (dose: 28.0 mg/kg/injection, schedule: Q01DX009 (ip), vehicle: Klucel (hydroxypropylcellulose) (HPC)): 94 % of control

Compound: C1CN1c1nc(N2CC2)nc(N2CC2)n1
- T/C (dose: 0.15 mg/kg/injection, schedule: Q01DX Z (ip), vehicle: saline): 113 % of control
- T/C (dose: 0.25 mg/kg/injection, schedule: Q01DX Z (ip), vehicle: saline): 119 % of control
- T/C (dose: 0.5 mg/kg/injection, schedule: Q01DX Z (ip), vehicle: saline): 160 % of control
- T/C (dose: 0.75 mg/kg/injection, schedule: Q01DX Z (ip), vehicle: saline): 156 % of control
- T/C (dose: 1.0 mg/kg/injection, schedule: Q01DX Z (ip), vehicle: saline): 124 % of control
- T/C (dose: 1.5 mg/kg/injection, schedule: Q01DX Z (ip), vehicle: saline): 97 % of control
- T/C (dose: 2.1 mg/kg/injection, schedule: Q01DX001 (ip), vehicle: saline): 153 % of control
- T/C (dose: 3.2 mg/kg/injection, schedule: Q01DX001 (ip), vehicle: saline): 182 % of control
